*1 amine or outer side, *2 acyl side, *3 side chain or, on linkers, in order; H or OH if unused. Where a SMILES comes first, the peptide text is derived from it. [ ]: non-standard residue; d: D form. d(isoGln) = NC(=O)[C@@H](CCC(=O)[*:2])N[*:1]
What was measured:
[1] = target: T1, PcsBCHAP (CHAP domain of PcsB) (Streptococcus pneumoniae, UniProt A0A0H2ZQ76); test: biochemical; details: read-out: kd (1/s)
T1 sequence (A0A0H2ZQ76 274-392): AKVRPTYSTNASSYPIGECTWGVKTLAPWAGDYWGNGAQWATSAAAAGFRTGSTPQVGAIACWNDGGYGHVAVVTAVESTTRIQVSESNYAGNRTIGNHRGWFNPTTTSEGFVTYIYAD

[2] = target: T1, PcsBCHAP (CHAP domain of PcsB); test: biochemical; details: read-out: ka (1/Ms)
[3] = target: T1, PcsBCHAP (CHAP domain of PcsB); test: SPR; format: binding

| Structure (SMILES) | koff [1] | kon [2] | Kd [3] |
| --- | --- | --- | --- |
| CC(=O)N[C@H]1C(O)O[C@H](CO)[C@@H](O)[C@@H]1O[C@H](C)C(=O)N[C@@H](C)C(=O)N[C@H](CCC(=O)N[C@@H](CCCCN)C(=O)O)C(N)=O (stereo partly shown) [M-TriLYS] | 0.0117 s⁻¹ | 98200 M⁻¹ s⁻¹ |  |
| NCCCC[C@H](NC(=O)CC[C@@H](N)C(=O)O)C(=O)O [iE-Lys] | 0.00956 s⁻¹ | 102000 M⁻¹ s⁻¹ | 94.1 nM |

The remaining lines, values ahead:

| koff [1] | kon [2] | Kd [3] | Structure (SMILES) |
| --- | --- | --- | --- |
| 0.036 s⁻¹ | 33300 M⁻¹ s⁻¹ |  | C[C@H](N)C(=O)N[C@H](CCC(=O)N[C@@H](CCCCN)C(=O)N[C@H](C)C(=O)N[C@H](C)C(=O)O)C(=O)O [AEKADAD] |
| 0.00502 s⁻¹ | 99600 M⁻¹ s⁻¹ |  | C[C@H](N)C(=O)N[C@H](CCC(=O)N[C@@H](CCCCN)C(=O)N[C@H](C)C(=O)N[C@H](C)C(=O)O)C(N)=O [AiQKADAD] (H-A[d(isoGln)]K[dA][dA]-OH) |
| 0.00394 s⁻¹ | 6280 M⁻¹ s⁻¹ |  | CC(=O)N[C@H]1C(O)O[C@H](CO)[C@@H](O)[C@@H]1O[C@H](C)C(=O)N[C@@H](C)C(=O)N[C@H](CCC(=O)N[C@@H](CCC[C@@H](N)C(=O)O)C(=O)O)C(=O)O (stereo partly shown) [M-TriDAP] |
| 0.017 s⁻¹ | 158000 M⁻¹ s⁻¹ |  | N[C@H](CCC(=O)N[C@H](CCC[C@H](N)C(=O)O)C(=O)O)C(=O)O [iE-DAP] |

Reference: article doi:10.1101/2025.05.23.655736v2 (biorxiv, 2025)
